Data on one molecule can be found in patent US20100267803A1, “Regulators Of Fat Metabolism As Anti-Cancer Targets” (The Research Foundation of State University Of New York, priority 2008, published 2010).

Common to all, as to assay type: cell-based, human
The test system of assay [1] is NR1D1 mRNA. Put plainly: qRT-PCR of NR1D1 mRNA in BT474 cells. The note with it: 20 μM GW9662 for 48 h. The protocol: (§1) FIG. 2 NR1D1 and PBP are necessary for survival of ERBB2-positive cells. (a) PBP and NR1D1 mRNA levels of BT474 cells transfected with luciferase (control), PBP or NR1D1 shRNAs for 48 h, analyzed by qRT-PCRs. (Error bars are s.d from 3 experiments; ***P<0.003, **P=0.01, *P=0.02). (b) BMAL1 luciferase reporter activity of BT474 cells transfected with either empty vector (control), or NR1D1 shRNA for 48 h.
(§2) FIG. 3 PPAR. inhibition impacts NR1D1 expression and ERBB2-positive cells viability. (a) Cell counts of BT474, MDA-MB-361, MCF-7 and HMEC cells treated with vehicle, 10 and 20 μM of the PPAR. antagonist GW9662 for 72 hrs. Results represented as % of control (vehicle). (Error bars are s.d from 3 individual experiments; *P>0.2, **P<0.05, ***P<0.002). (b) BT474 cells treated with vehicle or 20 μM of GW9662 for 48 h were immuno-stained for cleaved Caspase-3. (c) Quantification of Caspase-3 signal. (Error bars are s.d from 3 individual experiments; ***P=0.002). (d) aP2 and NR1D1 mRNA levels of BT474 cells treated with vehicle (control) and 20 μM of GW9662 for 48 h, analyzed by qRT-PCRs. […]

The subject of assay [2] is aP2 (FABP4) mRNA. Put plainly: qRT-PCR of aP2 mRNA in BT474 cells. The note with it: 20 μM GW9662 for 48 h. The protocol:
(§3) FIG. 3 PPAR. inhibition impacts NR1D1 expression and ERBB2-positive cells viability. (a) Cell counts of BT474, MDA-MB-361, MCF-7 and HMEC cells treated with vehicle, 10 and 20 μM of the PPAR. antagonist GW9662 for 72 hrs. Results represented as % of control (vehicle). (Error bars are s.d from 3 individual experiments; *P>0.2, **P<0.05, ***P<0.002). (b) BT474 cells treated with vehicle or 20 μM of GW9662 for 48 h were immuno-stained for cleaved Caspase-3. (c) Quantification of Caspase-3 signal. (Error bars are s.d from 3 individual experiments; ***P=0.002). (d) aP2 and NR1D1 mRNA levels of BT474 cells treated with vehicle (control) and 20 μM of GW9662 for 48 h, analyzed by qRT-PCRs. (Error bars are s.d from 3 experiments; ***P<0.0006. (e) BMAL1-luc activity of BT474 cells treated with vehicle or 20 μM of GW9662 for 48 h. (Error bars are s.d from 3 individual experiments; **P=0.03). (f) Total ERBB2 western blot of BT474 cells treated with vehicle or 20 μM GW9662 for 72h. GAPDH was used as control.
(§4) Cell viability—apoptosis assays. […] At least 30 fields were imaged per single experiment. […] Immunoblotting. […] PCR reaction was run using standard conditions.
On the technique in general: Real-time PCR tracks product formation cycle by cycle.

Assay [3] has as its system FASN mRNA. Kind of assay: qRT-PCR of FASN mRNA in BT474 cells. The note with it: shRNA or 20 μM GW9662 for 48 h. The protocol:
(§5) FIG. 4 NR1D1 and PBP coordinate fatty acid metabolism in breast cancer cells. (a) BT474, MDA-MB-361, MCF-7 and HMEC cells were stained with Oil-Red O lipid and hematoxylin nuclear stains. (b) Fat stores were quantified by BODIPY 493/503 lipid probe staining (Error bars are s.d from 3 individual experiments). (c) FASN, ACLY, ACACA and FADS2 mRNA levels of BT474 cells treated with luciferase (control), PBP or NR1D1 shRNAs, or with vehicle and 20 μM of GW9662 for 48 h, analyzed by qRT-PCRs. (Error bars are s.d from 3 experiments; ***P<0.001, **P=0.005) (d) BT474 cells were transfected with FASN, ACLY and ACACA shRNAs and co-transfected with GFP. Transfected cells were counted at 24 h and 72 h and the 72h-to-24 h ratio for each shRNA was calculated and expressed as % of the control shRNA (luciferase). (Error bars are s.d from 3 individual experiments; **P<0.01, ***P<0.002). (e) BODIPY images and (f) quantification of BT474 cells transfected with luciferase (control), PBP or NR1D1 shRNAs and co-transfected with DsRed (Error bars are s.d from 3 individual experiments; ***P<0.03). Arrows indicate transfected cells.
as §4

In assay [4] the test system is ACLY mRNA. Kind of assay: qRT-PCR of ACLY mRNA in BT474 cells. The note with it: shRNA or 20 μM GW9662 for 48 h. The protocol: as §5, §4
Assay [5] concerns ACACA mRNA. Kind of assay: qRT-PCR of ACACA mRNA in BT474 cells. The note with it: shRNA or 20 μM GW9662 for 48 h. The protocol:
as §5, §4

The subject of assay [6] is FADS2 mRNA. Kind of assay: qRT-PCR of FADS2 mRNA in BT474 cells. To be noted: shRNA or 20 μM GW9662 for 48 h. The protocol:
as §5, §4

Assay [7] has as its system ERBB2. Put plainly: ERBB2 western blot of BT474 cells. The protocol: as §3, §4
(In general: Immunoblotting shows a protein as a band on a membrane.)

Assay [8] has as its system BMAL1 reporter. Kind of assay: BMAL1 luciferase reporter assay in BT474 cells. To be noted: 20 μM GW9662 for 48 h. The protocol: as §1
as §2, with “(Error bars are s.d from 3 individual experiments; ***P=0.002).” left out
Reporter assays. […] Cells were lysed 48 h post-transfection and firefly (reporter) and renilla luciferase activities were measured using the Dual-Luciferase Reporter Assay kit (Promega) on a BioTek Synergy HT reader. The ratio of Firefly to Renilla luciferase activity was calculated and presented as percentage of control.
A general note: A reporter such as luciferase makes a cellular process visible.

For assay [9], the system named is BT474 cells. Put plainly: Apoptosis by cleaved Caspase-3 or activated Bax immunofluorescence. To be noted: 48 h of shRNA or 20 μM GW9662. The protocol: Results are shown as percentage of control. (**P=0.03). (c) BT474 cells were transfected with luciferase (control), PBP and NR1D1 shRNAs and co-transfected with GFP. Green cells were counted at intervals and expressed as percentage of control. (Error bars are s.d from 3 individual experiments; *P<0.08, **P<0.03, ***P<0.005). (d) BT474 cells were transfected with luciferase (control), PBP or NR shRNAs for 48 h. Immunofluorescence was performed for cleaved Caspase-3 signal; cell nuclei were stained with Hoechst 33243. (e) Cells from […] were counted for cleaved Caspase-3 signal. (Error bars are s.d from 3 individual experiments; ***P<0.0003). (f) BT474 cells were transfected with luciferase (control) PBP, NR1D1 or PBP and NR1D1 shRNAs together and co-transfected with GFP. Transfected cells were counted at 24 h and 72 h and the 72 h-to-24 h ratio for each shRNA was calculated and expressed as % of the control shRNA (luciferase). (Error bars are s.d from 3 individual experiments; **P=0.01, ***P<0.002). (g) Cells from (f) were counted for cleaved Caspase-3 signal. (Error bars are s.d from 3 individual experiments; ***P<0.0001). (h) ERBB2 mRNA levels of BT474 cells transfected with luciferase (control), PBP or NR1D1 shRNAs for 48 h, analyzed by qRT-PCRs. (Error bars are s.d from 3 individual experiments; ***P=0.0001).
FIG. 3 PPAR. inhibition impacts NR1D1 expression and ERBB2-positive cells viability. (a) Cell counts of BT474, MDA-MB-361, MCF-7 and HMEC cells treated with vehicle, 10 and 20 μM of the PPAR. antagonist GW9662 for 72 hrs. Results represented as % of control (vehicle). (Error bars are s.d from 3 individual experiments; *P>0.2, **P<0.05, ***P<0.002). […] (c) Quantification of Caspase-3 signal. […] (d) aP2 and NR1D1 mRNA levels of BT474 cells treated with vehicle (control) and 20 μM of GW9662 for 48 h, analyzed by qRT-PCRs. […]
FIG. 5. (a) MDH1 and ME1 mRNA levels of BT474 cells treated with luciferase (control), PBP or NR1D1 shRNAs for 48 h, analyzed by qRT-PCRs. […] (d) Quantification of cleaved Caspase-3 signal from cells in (c). […]

Assay [10] deals with BT474, MDA-MB-361, MCF-7 and HMEC cells. Kind of assay: Cell counts after PPARγ antagonist treatment. The note with it: 10 and 20 μM for 72 hrs; % of vehicle. The protocol:
as §3, §4

Molecules are shown by their SMILES.

On to `O=C(Nc1ccccc1)c1cc([N+](=O)[O-])ccc1Cl` [GW9662, reference compound], for which, in [1], the NR1D1 message levels entry is “dramatically decreased”. The “mRNA levels of aP2” value in assay [2] is recorded as “decreased mRNA levels of aP2”. For the same molecule, the FASN transcript level entry in assay [3] was “reduced”. The ACLY transcript level result in assay [4] is reported as “reduced”. Further, the ACACA transcript level entry in assay [5] is “reduced”. The FADS2 transcript levels entry in assay [6] was “downregulated”. For the same molecule, in assay [7] (20 μM GW9662 for 72h), the ERBB2 protein levels result was “Neither ERBB2 protein levels (FIG. 3f), nor ERBB2 phosphorylation (FIG. S3d) were significantly affected”. In [7] (GW9662 treatment), the ERBB2 phosphorylation entry is “Neither ERBB2 protein levels (FIG. 3f), nor ERBB2 phosphorylation (FIG. S3d) were significantly affected”. For the same molecule, the BMAL1 reporter activity entry in assay [8] is “increased BMAL1 reporter activity”. The apoptosis entry in [9] is reported as “apoptosis of BT474 cells”. In addition, in assay [10], the “sensitivity of cells to drug treatment (cell counts)” value is “ERBB2-positive cells were more sensitive to drug treatment than MCF-7 and HMEC cells”.
